Reference: patent US4314061A, “Certain 3,6-bis-(heteroaminoalkoxy) acridines” (priority 1980, dated 1982)
Where a name gives a salt, the structure may show the parent alone.

Tests used:
Columbia SK virus [1] = experiment: Antiviral effects against an interferon-sensitive virus, Columbia SK; type: in vivo, Taconic Farms male, white mice; settings: 400 mg/kg oral, 18 hours before infection; 14 days post injection
Protocol: Taconic Farms male, white mice, weighing 18-24 g were treated by gavage, 18 hours before infection with a test compound suspended or dissolved in 1.0 ml of 0.2% aqueous agar solution. The mice were then infected by subcutaneous injection with one LD95 of Columbia SK virus in 0.2 ml of distilled water. Groups of infected, untreated mice were used as controls to show the lethality of the infection. The test duration was 14 days.

[2] = test system: Rauscher Virus-Induced Leukemia; experiment: Inhibition of splenomegaly in mice with Rauscher virus-induced leukemia; type: in vivo, Balb/c mice; settings: for reduction in splenomegaly: general statement, no dose, relative to placebo treated RLV-infected mice
[3] = test system: Rauscher Virus-Induced Leukemia; experiment: Restoration of antibody formation in mice with Rauscher virus-induced leukemia; type: in vivo, Balb/c mice
B16 melanoma = experiment: Distribution of metastatic foci in lungs of mice inoculated subcutaneously with B16 melanoma; type: in vivo, BDF1 mice; settings: for No. of mice with 0 lung foci/mouse / No. of mice with 1-5 lung foci/mouse / No. of mice with 6-10 lung foci/mouse / No. of mice with 11-15 lung foci/mouse / No. of mice with >15 lung foci/mouse: day 25
Protocol: BDF1 male mice inoculated subcutaneously with 0.25 ml of a 10% tumor
homogenate on day 0. Drugs administered intraperitoneally days 1,5,9 and
13; mice sacrificed on day 25, 10 mice per group. Distribution of […]

Columbia SK virus [4] = experiment: Protection of mice against lethal Columbia SK virus infection by oral pre-treatment; type: in vivo, random-bred Swiss male mice; settings: 200 mg/kg oral
Protocol: At 24, 48, 72 and 96 hours after drug treatment, separate groups of mice were injected SC with an LD95 dose of the interferon sensitive virus, Columbia SK. […] Typically, protection from lethal infection with Columbia SK virus is associated with induction of interferon.

[5] = test system: natural killer lymphocytes (NK cells); experiment: Stimulation of NK-cell activity in normal mice; settings: 10 mg/kg intraperitoneal

Compound: CCN(CC)C(C)COc1ccc2cc3ccc(OCC(C)N(CC)CC)cc3nc2c1.Cl.Cl.Cl (centres unmarked) [3,6-Bis(2-diethylaminopropoxy)acridine . 3HCl]
- Survivors/Total (Columbia SK virus [1]): 13/15

Compound: CCNCCOc1ccc2cc3ccc(OCCNCC)cc3nc2c1.Cl.Cl.Cl [3,6-Bis(2-ethylaminoethoxy)acridine trihydrochloride]
- Survivors/Total (Columbia SK virus [1]): 10/15
- % Reduction in splenomegaly ([2]; 100 mg/kg): 89%

Compound: CCN(CC)CCOc1ccc2cc3ccc(OCCN(CC)CC)c(Cl)c3nc2c1Cl [3,6-bis(2-diethylaminoethoxy)-4,5-dichloroacridine]
- Survivors/Total (Columbia SK virus [1]): 7/15
- % Reduction in splenomegaly ([2]; 50 mg/kg): 86%
- Serum hemagglutinin titer/saline control titer ([3]; 100 mg/kg oral): 128/16

Compound: CCN(CC)CCOc1ccc2cc3ccc(OCCN(CC)CC)c([N+](=O)[O-])c3nc2c1[N+](=O)[O-] [3,6-bis(2-diethylaminoethoxy)-4,5-dinitroacridine]
- % Reduction in splenomegaly ([2]; 100 mg/kg): 108%

Compound: CN(C)CCOc1ccc2cc3ccc(OCCN(C)C)cc3nc2c1.Cl.Cl.Cl [3,6-bis(2-dimethylaminoethoxy)acridine trihydrochloride]
- No. of mice with 0 lung foci/mouse (B16 melanoma; 6.5 mg/kg i.p.): 0
- No. of mice with 1-5 lung foci/mouse (B16 melanoma; 6.5 mg/kg i.p.): 3
- No. of mice with 6-10 lung foci/mouse (B16 melanoma; 6.5 mg/kg i.p.): 3
- No. of mice with 11-15 lung foci/mouse (B16 melanoma; 6.5 mg/kg i.p.): 1
- No. of mice with >15 lung foci/mouse (B16 melanoma; 6.5 mg/kg i.p.): 1
- No. of mice with 0 lung foci/mouse (B16 melanoma; 12.5 mg/kg i.p.): 1
- No. of mice with 1-5 lung foci/mouse (B16 melanoma; 12.5 mg/kg i.p.): 5
- No. of mice with 6-10 lung foci/mouse (B16 melanoma; 12.5 mg/kg i.p.): 1
- No. of mice with 11-15 lung foci/mouse (B16 melanoma; 12.5 mg/kg i.p.): 1
- No. of mice with >15 lung foci/mouse (B16 melanoma; 12.5 mg/kg i.p.): 1
- No. of mice with 0 lung foci/mouse (B16 melanoma; 25 mg/kg i.p.): 2
- No. of mice with 1-5 lung foci/mouse (B16 melanoma; 25 mg/kg i.p.): 4
- No. of mice with 6-10 lung foci/mouse (B16 melanoma; 25 mg/kg i.p.): 2
- No. of mice with 11-15 lung foci/mouse (B16 melanoma; 25 mg/kg i.p.): 1
- No. of mice with >15 lung foci/mouse (B16 melanoma; 25 mg/kg i.p.): 0
- No. of mice with 0 lung foci/mouse (B16 melanoma; 50 mg/kg i.p.): 1
- No. of mice with 1-5 lung foci/mouse (B16 melanoma; 50 mg/kg i.p.): 1
- No. of mice with 6-10 lung foci/mouse (B16 melanoma; 50 mg/kg i.p.): 4
- No. of mice with 11-15 lung foci/mouse (B16 melanoma; 50 mg/kg i.p.): 0
- No. of mice with >15 lung foci/mouse (B16 melanoma; 50 mg/kg i.p.): 0
- No. of mice with 0 lung foci/mouse (B16 melanoma; 100 mg/kg i.p.): 3
- No. of mice with 1-5 lung foci/mouse (B16 melanoma; 100 mg/kg i.p.): 7
- No. of mice with 6-10 lung foci/mouse (B16 melanoma; 100 mg/kg i.p.): 0
- No. of mice with 11-15 lung foci/mouse (B16 melanoma; 100 mg/kg i.p.): 0
- No. of mice with >15 lung foci/mouse (B16 melanoma; 100 mg/kg i.p.): 0
- Mortality (in place of lung foci count) (B16 melanoma; 200 mg/kg i.p. days 1,5,9,13): All mice dead

Compound: CC(C)NCCOc1ccc2cc3ccc(OCCNC(C)C)cc3nc2c1.Cl.Cl.Cl [3,6-bis(2-isopropylaminoethoxy)acridine trihydrochloride]
- Survivors/Total (Columbia SK virus [1]): 15/15
- % Reduction in splenomegaly ([2]; 200 mg/kg): 96%
- Serum hemagglutinin titer/saline control titer ([3]; 100 mg/kg oral): 512/32

Compound: Cl.Cl.Cl.c1cc2cc3ccc(OCCN4CCCCC4)cc3nc2cc1OCCN1CCCCC1 [3,6-bis(2-piperidinoethoxy)acridine trihydrochloride]
- Survivors/Total (Columbia SK virus [1]): 12/15
- % Reduction in splenomegaly ([2]; 100 mg/kg): 84%
- Serum hemagglutinin titer/saline control titer ([3]; 100 mg/kg oral): 256/16

Compound: c1cc2cc3ccc(OCCCN4CCCCC4)cc3nc2cc1OCCCN1CCCCC1 [3,6-bis[3-(1-piperidino)propoxy]acridine trihydrochloride]
- Survivors/Total (Columbia SK virus [1]): 12/15
- % Reduction in splenomegaly ([2]; 50 mg/kg): 74%
- Serum hemagglutinin titer/saline control titer ([3]; 50 mg/kg oral): 1024/32

Compound: O=c1[nH]cc(F)c(=O)[nH]1 [5-fluorouracil, reference compound]
- No. of mice with 0 lung foci/mouse (B16 melanoma; 20 mg/kg i.p.): 1
- No. of mice with 1-5 lung foci/mouse (B16 melanoma; 20 mg/kg i.p.): 2
- No. of mice with 6-10 lung foci/mouse (B16 melanoma; 20 mg/kg i.p.): 1
- No. of mice with 11-15 lung foci/mouse (B16 melanoma; 20 mg/kg i.p.): 2
- No. of mice with >15 lung foci/mouse (B16 melanoma; 20 mg/kg i.p.): 1
- No. of mice with 0 lung foci/mouse (B16 melanoma; 25 mg/kg i.p.): 3
- No. of mice with 1-5 lung foci/mouse (B16 melanoma; 25 mg/kg i.p.): 3
- No. of mice with 6-10 lung foci/mouse (B16 melanoma; 25 mg/kg i.p.): 1
- No. of mice with 11-15 lung foci/mouse (B16 melanoma; 25 mg/kg i.p.): 1
- No. of mice with >15 lung foci/mouse (B16 melanoma; 25 mg/kg i.p.): 1
- No. of mice with 0 lung foci/mouse (B16 melanoma; 30 mg/kg i.p.): 3
- No. of mice with 1-5 lung foci/mouse (B16 melanoma; 30 mg/kg i.p.): 3
- No. of mice with 6-10 lung foci/mouse (B16 melanoma; 30 mg/kg i.p.): 3
- No. of mice with 11-15 lung foci/mouse (B16 melanoma; 30 mg/kg i.p.): 0
- No. of mice with >15 lung foci/mouse (B16 melanoma; 30 mg/kg i.p.): 0
- No. of mice with 0 lung foci/mouse (B16 melanoma; 40 mg/kg i.p.): 2
- No. of mice with 1-5 lung foci/mouse (B16 melanoma; 40 mg/kg i.p.): 5
- No. of mice with 6-10 lung foci/mouse (B16 melanoma; 40 mg/kg i.p.): 4
- No. of mice with 11-15 lung foci/mouse (B16 melanoma; 40 mg/kg i.p.): 0
- No. of mice with >15 lung foci/mouse (B16 melanoma; 40 mg/kg i.p.): 0
- No. of mice with 0 lung foci/mouse (B16 melanoma; 50 mg/kg i.p.): 2
- No. of mice with 1-5 lung foci/mouse (B16 melanoma; 50 mg/kg i.p.): 4
- No. of mice with 6-10 lung foci/mouse (B16 melanoma; 50 mg/kg i.p.): 3
- No. of mice with 11-15 lung foci/mouse (B16 melanoma; 50 mg/kg i.p.): 0
- No. of mice with >15 lung foci/mouse (B16 melanoma; 50 mg/kg i.p.): 0
- % Reduction in splenomegaly ([2]; 50 mg/kg): 115%
- reduction in splenomegaly [2]: ≥ 50%

Compound: Sc1ncnc2nc[nH]c12 [6-Mercaptopurine, 6-mercaptopurine, reference compound]
- % Reduction in splenomegaly ([2]; 100 mg/kg): 113%
- reduction in splenomegaly [2]: ≥ 50%

Compound: CN(Cc1cnc2nc(N)nc(N)c2n1)c1ccc(C(=O)N[C@@H](CCC(=O)O)C(=O)O)cc1 [Methotrexate, reference compound]
- % Reduction in splenomegaly ([2]; 4 mg/kg): 59%
- reduction in splenomegaly [2]: ≥ 50%

Compound: CCN(CC)CCOc1ccc2c(c1)C(=O)c1cc(OCCN(CC)CC)ccc1-2 [Tilorone, tilorone hydrochloride, reference compound]
- Survivors/Total (14 Days) (Columbia SK virus [4]; -24 hr relative to virus challenge, * p <.01): 18/20
- Survivors/Total (14 Days) (Columbia SK virus [4]; -48 hr relative to virus challenge, * p <.01): 15/20
- Survivors/Total (14 Days) (Columbia SK virus [4]; -72 hr relative to virus challenge, * p <.01): 9/20
- Survivors/Total (14 Days) (Columbia SK virus [4]; -96 hr relative to virus challenge): 8/20

Compound: polyinosinic acid:polycytidylic acid [Poly I:C, reference compound]
- % Cytotoxicity ([5]; Test 1 (CD1 mice), * p <.05): 24.7%
- % Cytotoxicity ([5]; Test 2 (BDF1 hybrids)): 36.1%
- Serum hemagglutinin titer/saline control titer ([3]; 10 mg/kg IP): 1024/32
